Like-named read-outs stand apart in the source and are kept apart here.
Columns and labels:
[1] = tested on: C. albicans (ATCC strain 90028); experiment: Antifungal microdilution broth assay (PrestoBlue), C. albicans; assay type: cell-based, Candida albicans; conditions: 100 μM; for inhibition at 100 µM: Candida albicans, ATCC90028, Table 4A, read-out: C. albicans inhibition (at 100 μM)
Procedure: Sigma-Aldrich) was used as the base medium for testing. […] solution of morpholinepropanesulfonic acid (MOPS; Sigma-Aldrich) was added to the RPMI to a final concentration of 0.165 M for buffering (RPMI-MOPS). This medium was adjusted to a pH of 7.0 with 10 M NaOH and filter sterilized. C. albicans (ATCC strain 90028), C. [NT] strain 66032), and C. tropicalis (ATCC strain 750) were cultured on potato dextrose agar (Sigma-Aldrich) plates, and incubated at 35° C. for 24 hours. For antifungal testing, overnight colonies were adjusted to 1.5×10^3 cells/mL, hereafter referred to as the test inoculum. PrestoBlue® (Life Technologies, Invitrogen, Carlsbad, Calif.), a resazurin-based cell viability reagent that, in metabolically active cells, is reduced from blue, non-fluorescent resazurin, to red, fluorescent resorufin, was used to assess inhibition of yeast growth by the aurones. […] Following addition of aurone, plates were then incubated for 24 hours at 35° C. PrestoBlue was added to a final concentration of 10% in each well and fluorescence read at 560 nm excitation and 590 nm emission, per manufacturer instructions, using a SpectraMax M2e spectrophotometer (Molecular Devices, LLC, Sunnyvale, Calif.). To optimize the PrestoBlue reduction time, RFUs were collected at 15 minute intervals for 4 hours using a reference antifungal. […] IC50 determination was calculated using GraphPad Prism version 7.01 for Windows (GraphPad Software, Inc., La Jolla, Calif.) from the RFUs at dilution points. Calculations were made with a nonlinear regression after transforming the molar concentrations of the aurones into the logarithmic form. Graphing was accomplished utilizing the same program following a four parameter curve fitting sigmoidal plot of the data. All aurones and controls were tested in triplicate and all testing was repeated in at least three independent experiments.

[2] = tested on: Leishmania amazonensis promastigotes expressing beta-lactamase; experiment: microbe, parasite or virus in culture; assay type: cell-based; conditions: for IC50: Leishmania amazonensis, read-out: IC50 L. amaz.
Procedure: Leishmania amazonensis promastigotes expressing beta-lactamase (Buckner et al., Am. J. Trop. Med. Hyg. 72 (2005) 600-605. doi:72/5/600 [pii]) were cultured in RPMI supplemented with 10% fetal calf serum and 1% pen-strep-glut solution (Sigma) at 27° C. Stationary phase promastigotes were adjusted in fresh media, treated with compounds, and incubated at 37° C. At 24 hours, 100 uL of cultures was added to 50 uL of the CellTiter Glo® solution. Luminescence readings were taken with a spectrophotometer and used to calculate inhibition.

[3] = tested on: Trypanosoma cruzi Tulahuen cells expressing beta-galactosidase; experiment: T. cruzi intracellular assay (beta-galactosidase, L6 host cells); conditions: for IC50: Trypanosoma cruzi, TULAHUEN
Procedure: Trypanosoma cruzi Tulahuen cells expressing beta-galactosidase (Buckner et al., Antimicrob. Agents Chemother. 40 (1996) 2592-2597) were cultured using the L6 cell line as a host cell. Adherent L6 cultures were infected with freshly burst T. cruzi trypomastigotes. Approximately 4-6 days later freshly burst trypomastigotes were collected and used to maintain cultures For assays, trypomastigotes were centrifuged to a loose pellet and incubated for 3 hours to allow the trypomastigote forms to swim out of the pellet. Cells were adjusted for addition to intracellular or extracellular assays. […] For intracellular assays, cells were added to adherent L6 cells using an infection ratio of 1:1 and immediately treated with compounds. At 96 hours incubations, a solution containing chlorophenol-red-B-D-beta-galactopyranosidase (Sigma) and a lysis agent were added. After an additional 2 hour incubation, a spectrophotometer was used to quantify the resulting color change (or lack thereof) which was used to calculate inhibition.
The percentage of cell inhibition was calculated using the formula: Percent Inhibition=1−((Treated Sample value−Medium only value)/(Untreated value−Medium only value))×100. Results are expressed as the mean of two or more independent trials.

[4] = tested on: rat skeletal muscle cell line, L6; experiment: cells; assay type: cell-based
Procedure: Cells were maintained in high glucose DMEM obtained from HyClone Laboratories (Logan, Utah) and supplemented with FCS and P/S at the same concentrations used for parasite culture. Cells were passaged every 3-4 days and maintained in a 37° C. humidified incubator in an atmosphere of 5% CO2. For assays. cells were detached, counted using a hemocytometer, and adjusted using fresh media to deliver 5×10^3 cells per well (90 μL) in black walled, flat clear bottom 96-well microtiter plates. After 3 h incubation for attachment, compounds diluted in culture medium were added (10 μL) to triplicate wells. Positive controls (cells treated with podophyllotoxin (Sigma, St. Louis, Mo.)), negative controls (untreated cells), solvent controls (DMSO) and media blanks were included on each plate. Following incubation for 71.5 h, 11 μL of PrestoBlue was added into each well.

[5] = tested on: Trypanosoma brucei brucei 427 cells; experiment: T. brucei culture and assay (PrestoBlue); assay type: cell-based; conditions: mean of 2(+) independent trials, read-out: IC50 T. brucei
[6] = read-out: IC50 T. cruzi, Table 1, intracellular assay, mean of 2(+) trials (^c one trial)
[7] = read-out: IC50 T. cruzi, Table 2, intracellular assay, mean of 2(+) independent trials
[8] = read-out: IC50 TC-I, Table 3A, weighted means of two or more independent trials
[9] = Rattus norvegicus, Table 1, read-out: IC50 Toxicity (L6)
[10] = Rattus norvegicus, Table 3A, weighted means of two or more independent trials, read-out: IC50 L6
[11] = read-out: IC50 TC-I, Table 3C, intracellular T. cruzi, weighted means of two or more independent trials
[12] = Rattus norvegicus, Table 3C, weighted means of two or more independent trials, read-out: IC50 L6

COc1ccc2c(c1)O/C(=C\c1ccc[nH]1)C2=O [Aurone 5003]
inhibition at 100 µM [1]: 12.4%

COc1ccc2c(c1)O/C(=C\c1ccc[nH]1)C2=O [Aurone 5004]
C. albicans inhibition (at 100 μM) ([1]; Table 4A): 14.7%

Cc1ccc(/C=C2\Oc3ccccc3C2=O)cc1 [Aurone 9065, (Z)-2-(4-methylbenzylidene)benzofuran-3(2H)-one]
IC50 [2]: 1.37 µM
Selectivity L6/La ([2]; Table 1): >72.99
Selectivity L6/La ([2]; Table 2, L6 IC50 / L. amazonensis IC50): >72.99
Selectivity L6/Tc ([3]; Table 1, intracellular T. cruzi IC50): >11.59
Selectivity L6/Tc ([3]; Table 2, L6 IC50 / T. cruzi IC50 (intracellular assay)): >11.59
Selectivity L6/TC-I ([3]; Table 3A, estimated from highest L6 dose tested where no L6 IC50): >11.59
IC50 [3, 6]: 8.63 µM
IC50 [3, 7]: 8.63 µM
IC50 [3, 8]: 8.63 µM
IC50 [4, 9]: > 100 µM
IC50 [4, 10]: > 100 µM
IC50 ([4]; Table 2, L6 mammalian cells, read-out: IC50 Toxicity (L6)): > 100 µM
IC50 ([5]; Table 2): > 50 µM
IC50 ([5]; Trypanosoma brucei, Table 1): > 50 µM

CN(C)c1ccc(/C=C2\Oc3ccccc3C2=O)cc1 [Aurone 9087, (Z)-2-(4-(dimethylamino)benzylidene)benzofuran-3(2H)-one]
IC50 [2]: 1.65 µM
selectivity for T. cruzi (L6/Tc) [3]: 26.83
IC50 [3, 6]: 5.38 µM
IC50 [3, 7]: 5.38 µM
IC50 ([3]; read-out: T. cruzi IC50 dose): 5.38 µM
IC50 [4, 9]: 144 µM
IC50 ([5]; Trypanosoma brucei, Table 1): 39 µM

Cc1ccc(/C=C2\Oc3ccccc3C2=O)o1 [Aurone 9251]
IC50 [2]: 2.36 µM
IC50 [3, 6]: 3.57 µM
IC50 ([3]; read-out: IC50 TC-I, Table 3B, weighted means of two or more independent trials): 3.57 µM
IC50 [4, 9]: 85.5 µM
IC50 ([4]; Rattus norvegicus, Table 3B, weighted means of two or more independent trials, read-out: IC50 L6): 85.5 µM
IC50 ([5]; Trypanosoma brucei, Table 1): 35.3 µM

O=C1/C(=C/c2cccc(O)c2)Oc2ccccc21 [Aurone 9252, (Z)-2-(3-hydroxybenzylidene)benzofuran-3(2H)-one]
IC50 [2]: 1.52 µM
IC50 [3, 6]: 16.5 µM
IC50 [3, 7]: 16.5 µM
IC50 [4, 9]: > 100 µM
IC50 ([5]; Trypanosoma brucei, Table 1): 34.9 µM

O=C1/C(=C/c2cccs2)Oc2c1ccc(O)c2O [Sample 1001]
inhibition at 100 µM [1]: 26%

O=C1/C(=C/c2ccc(Br)cc2)Oc2c1ccc(O)c2O [Sample 1005]
inhibition at 100 µM [1]: 43.9%

COc1ccc(/C=C2\Oc3c(ccc(O)c3O)C2=O)cc1O [Sample 1009]
inhibition at 100 µM [1]: 99.4%

COc1ccc(/C=C2\Oc3ccccc3C2=O)c(OC)c1OC [Sample 2001]
inhibition at 100 µM [1]: 21.9%
IC50 [3, 8]: > 50 µM
IC50 [4, 10]: > 100 µM

COc1cc(/C=C2\Oc3ccccc3C2=O)cc(OC)c1OC [Sample 2002]
inhibition at 100 µM [1]: 8.8%
IC50 [3, 8]: > 50 µM
IC50 [4, 10]: > 100 µM

O=C1/C(=C/c2cccs2)Oc2ccccc21 [Sample 2004]
inhibition at 100 µM [1]: 65.9%

O=C1/C(=C/c2ccc(Br)cc2)Oc2ccccc21 [Sample 2009]
inhibition at 100 µM [1]: 12.3%
IC50 [3, 8]: 11.4 µM
IC50 [4, 10]: > 100 µM

O=C1/C(=C/c2ccc([N+](=O)[O-])cc2)Oc2ccccc21 [Sample 2010]
inhibition at 100 µM [1]: 3.3%
IC50 [3, 8]: 20 µM
IC50 [4, 10]: 249 µM

COc1ccc(/C=C2\Oc3ccccc3C2=O)cc1OC [Sample 2011]
inhibition at 100 µM [1]: 14.2%
IC50 [3, 8]: 21.9 µM
IC50 [4, 10]: 51.9 µM

O=C1/C(=C/C=C/c2ccccc2)Oc2ccccc21 [Sample 2013]
inhibition at 100 µM [1]: 64.6%
IC50 [3, 11]: 14.1 µM
IC50 [4, 12]: 58 µM

N#Cc1ccc(/C=C2\Oc3ccccc3C2=O)cc1 [Sample 2014]
inhibition at 100 µM [1]: 50.5%
IC50 [3, 8]: 23.5 µM
IC50 [4, 10]: 239 µM

O=C1/C(=C/c2cccc([N+](=O)[O-])c2)Oc2ccccc21 [Sample 2015]
inhibition at 100 µM [1]: 2.2%
IC50 [3, 8]: 22.6 µM
IC50 [4, 10]: 226 µM

O=C1/C(=C/c2ccc(-c3ccccc3)cc2)Oc2ccccc21 [Sample 2018]
inhibition at 100 µM [1]: 59.8%
IC50 [3, 11]: 34.4 µM
IC50 [4, 12]: 298 µM

O=C1/C(=C/c2ccc[nH]2)Oc2ccccc21 [Sample 2021]
inhibition at 100 µM [1]: 78.8%

O=C1/C(=C/c2ccco2)Oc2ccccc21 [Sample 2023]
inhibition at 100 µM [1]: 88.5%

O=C1/C(=C/c2ncc[nH]2)Oc2ccccc21 [Sample 2026]
inhibition at 100 µM [1]: 43.8%

O=C1/C(=C/c2cccs2)Oc2cc(O)ccc21 [Sample 2901]
inhibition at 100 µM [1]: 46.1%

Cc1ccc(/C=C2\Oc3cc(O)ccc3C2=O)cc1 [Sample 2904]
inhibition at 100 µM [1]: 20%

O=C1/C(=C/c2ccc(Br)cc2)Oc2cc(O)ccc21 [Sample 2905]
inhibition at 100 µM [1]: 16.6%

O=C1/C(=C/c2ccc[nH]2)Oc2cc(O)ccc21 [Sample 2906]
inhibition at 100 µM [1]: 27.5%

COc1ccc(/C=C2\Oc3cc(O)ccc3C2=O)cc1O [Sample 2911]
inhibition at 100 µM [1]: 40%

COc1ccc(/C=C2\Oc3cc(O)ccc3C2=O)c(OC)c1OC [Sample 2912]
inhibition at 100 µM [1]: 54.8%

COc1ccc2c(c1)O/C(=C\c1ccc(C)cc1)C2=O [Sample 5002]
inhibition at 100 µM [1]: 37.6%

COc1ccc2c(c1)O/C(=C\c1ccc(Br)cc1)C2=O [Sample 5005]
inhibition at 100 µM [1]: 22.4%

COc1ccc2c(c1)O/C(=C\c1ccc(C#N)cc1)C2=O [Sample 5006]
inhibition at 100 µM [1]: 19.4%

Cc1ccc(/C=C2\Oc3ccc(Br)cc3C2=O)cc1 [Sample 6000]
inhibition at 100 µM [1]: 6.1%

COc1cc(OC)c2c(c1)O/C(=C\c1ccc(C)cc1)C2=O [Sample 7000]
inhibition at 100 µM [1]: 45.6%

COc1cc(OC)c2c(c1)O/C(=C\c1ccc([N+](=O)[O-])cc1)C2=O [Sample 7001]
inhibition at 100 µM [1]: 12.6%

CCc1ccc(/C=C2\Oc3ccccc3C2=O)cc1 [Sample 8001]
inhibition at 100 µM [1]: 22.8%
IC50 [3, 8]: 11.4 µM
IC50 [4, 10]: > 100 µM

CC(C)c1ccc(/C=C2\Oc3ccccc3C2=O)cc1 [Sample 8002]
inhibition at 100 µM [1]: 26.6%
IC50 [3, 8]: 16.6 µM
IC50 [4, 10]: 89 µM

O=C1/C(=C/c2cc(Br)c(Br)s2)Oc2ccccc21 [Sample 9050]
inhibition at 100 µM [1]: 37.4%

COc1cc(/C=C2\Oc3ccccc3C2=O)ccc1O [Sample 9053]
inhibition at 100 µM [1]: 11.2%
IC50 [3, 8]: > 50 µM
IC50 [4, 10]: > 200 µM

COc1cccc(/C=C2\Oc3ccccc3C2=O)c1O [Sample 9055]
inhibition at 100 µM [1]: 16.7%
IC50 [3, 8]: > 50 µM
IC50 [4, 10]: > 100 µM

COc1cc(Br)c(/C=C2\Oc3ccccc3C2=O)cc1OC [Sample 9056]
inhibition at 100 µM [1]: 12.5%
IC50 [3, 8]: 36 µM
IC50 [4, 10]: > 100 µM

O=C1/C(=C/c2sccc2Br)Oc2ccccc21 [Sample 9060]
inhibition at 100 µM [1]: 7.5%

O=C1/C(=C/c2cc(Br)cs2)Oc2ccccc21 [Sample 9061]
inhibition at 100 µM [1]: 3.1%

O=C1/C(=C/c2c[nH]c3ccccc23)Oc2ccccc21 [Sample 9062]
inhibition at 100 µM [1]: 16.4%

O=C1/C(=C/c2cccc3[nH]ccc23)Oc2ccccc21 [Sample 9063]
inhibition at 100 µM [1]: 24%

O=C1/C(=C/c2ccc(CO)o2)Oc2ccccc21 [Sample 9067]
inhibition at 100 µM [1]: 17.6%

N#Cc1ccc(/C=C2\Oc3cc(O)ccc3C2=O)cc1 [Sample 9076]
inhibition at 100 µM [1]: 7.5%

COc1ccc(/C=C2\Oc3ccccc3C2=O)cc1O [Sample 9078]
inhibition at 100 µM [1]: 45.6%
IC50 [4, 10]: 70.7 µM
